Target: T1, S1P1 (EDG-1) receptor (Homo sapiens, UniProt P21453)
T1 construct: expressed in transfected cells
Experiment: S1P1 (EDG-1) GTP [γ-35S] binding assay, membranes from CHO cells
Type: biochemical
Conditions: membranes of CHO cells expressing human EDG-1
Description: A. In vitro: GPCR Activation Assay Measuring GTP [γ-^35S] Binding to Membranes Prepared from CHO Cells Expressing Human EDG Receptors
S1P1 (EDG-1) GTP [γ-^35S] binding assay: Homogenized membranes are prepared from CHO cell clones stably expressing a human EDG-1 N-terminal c-myc tag. Cells are grown in suspension in two 850 cm^2 roller bottles for three or fours days before harvesting. The cells are centrifuged down, washed once with cold PBS, and resuspended in ≦20 ml of Buffer A (20 mM HEPES, pH 7.4, […], EDTA-free complete protease inhibitor cocktail [1 tablet/25 ml]). The cell suspension is homogenized on ice, using a Polytron homogenizer at 30000 rpm at three intervals of 15 seconds each. The homogenate is first centrifuged at 2000 rpm on a tabletop low speed centrifuge for 10 minutes. The supernatant, after passing through a cell strainer, is then re-centrifuged at 50,000×g for 25 minutes at 4° C. The pellet is resuspended into buffer B (15% glycerol, 20 mM HEPES, pH 7.4, 0.1 mM EDTA, EDTA-free complete protease inhibitor cocktail [1 tablet/10 ml]). Protein concentration of the preparation is determined using the BCA Protein Assay kit (Pierce) using BSA as standard. The membranes are aliquoted and kept frozen at −80° C.
Solutions of test compounds ranging from 10 mM to 0.01 nM are prepared in DMSO. S1P is diluted in 4% BSA solution as positive controls. The desired amount of membrane preparation is diluted with ice-cold assay buffer (20 mM HEPES, pH 7.4, 100 mM NaCl, 10 mM MgCl2, 0.1% Fatty acid-free BSA, 5 μM GDP) and vortexed well. 2 μl or less of compound is distributed into each well of a round-bottom 96-well polystyrene assay plate, followed by addition of 100 µl of diluted membranes ([…]/well) and kept on ice until the addition of hot GTPγS. [^35S]-GTPγS is diluted 1:1000 (v/v) with cold assay buffer and 100 μl is added into each well. The reaction is carried out at room temperature for 90 minutes before the membranes are harvested onto Perkin-Elmer Unifilter® GF/B-96 filter plate using a Packard Filtermate Harvester. After several washes with wash buffer (20 mM HEPES, pH 7.4, 100 mM NaCl, 10 mM MgCl2), and a rinse with 95% ethanol, the filter is dried in a 37° C. oven for 30 minutes. MicroScint-20 is added and the plate sealed for scintillation counting on TopCount. EC50 values are obtained by fitting the GTP [γ-^35S] binding curves (raw data) with the dose response curve-fitting tool of GraphPad Prism. Six or twelve different concentrations are used to generate a concentration response curve (using three data points per concentration).

T1 sequence (P21453 whole entry): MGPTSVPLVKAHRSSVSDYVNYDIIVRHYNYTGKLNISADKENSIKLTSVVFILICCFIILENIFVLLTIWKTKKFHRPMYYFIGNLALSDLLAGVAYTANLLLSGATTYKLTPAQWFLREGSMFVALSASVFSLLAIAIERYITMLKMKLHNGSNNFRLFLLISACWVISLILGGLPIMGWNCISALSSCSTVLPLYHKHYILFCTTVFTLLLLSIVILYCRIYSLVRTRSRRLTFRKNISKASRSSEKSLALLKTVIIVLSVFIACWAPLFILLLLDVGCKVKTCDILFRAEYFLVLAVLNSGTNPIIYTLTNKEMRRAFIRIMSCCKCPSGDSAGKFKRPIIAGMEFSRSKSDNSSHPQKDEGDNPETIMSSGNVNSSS

SMILES | EC50
CCc1cc(-c2noc(-c3ccc(-c4ccccc4F)c(C(F)(F)F)c3)n2)ccc1S(N)(=O)=O [Example 194, 2-Ethyl-4-[5-(2′-fluoro-2-trifluoromethyl-biphenyl-4-yl)-[1,2,4]oxadiazol-3-yl]-benzenesulfonamide] | < 1 nM
CCc1cc(-c2noc(-c3ccc(C4CCCCC4)c(C(F)(F)F)c3)n2)ccc1S(N)(=O)=O [Example 196, 4-[5-(4-Cyclohexyl-3-trifluoromethyl-phenyl)-[1,2,4]oxadiazol-3-yl]-2-ethyl-benzenesulfonamide] | < 1 nM

Further lines, results first:

EC50 | SMILES
< 1 nM | CCc1ccccc1-c1ccc(-c2nc(-c3ccc(S(=O)(=O)NCC(=O)O)cc3)no2)cc1C(F)(F)F [Example 45]
< 1 nM | O=C(O)CCNS(=O)(=O)c1ccc(-c2noc(-c3ccc(Oc4cccc(F)c4)c(C(F)(F)F)c3)n2)cc1 [Example 54]
< 1 nM | NS(=O)(=O)c1ccc(-c2noc(-c3ccc(OC4CCCC4)c(C(F)(F)F)c3)n2)cc1 [Example 145]
